Test results as given in paper PMC3901259, “Characterisation of the Metabolites of 1,8-Cineole Transferred into Human Milk: Concentrations and Ratio of Enantiomers” (Metabolites, 2013).

What was measured:
[1] = design: method as in PMID 20425757; details: one volunteer, sage tea, overall intake 1.02 mg 1,8-cineole; cited from earlier work
[2] = Quantification of 1,8-cineole metabolites in human milk (SAFE, GC-MS, internal standard and matrix calibration) after oral intake of 100 mg 1,8-cineole; format: in vivo; details: for Absolute concentration in human milk: single determination
Source text: Human milk samples were provided voluntarily by breastfeeding mothers after intake of the non-prescription pharmaceutical Soledum® (Klosterfrau Healthcare Group, Cologne, Germany). Before the beginning of the study, the participants were informed verbally, as well as in written form, about the study procedure and purpose and they were told that withdrawing from the study was possible at any time without giving any reason. All volunteers gave written consent to the analysis of their milk samples and anonymous publication of the resulting data. The Ethical Committee of the Medical Faculty, University Erlangen-Nuremberg, approved the experimental procedures. Each participant was handed a copy of the Soldeum® package instructions and was advised to read it before capsule intake. They were also advised to withdraw from the study if any negative reactions such as medication allergies or interactions with other drugs they were taking were to be expected. Additionally, the volunteers were informed verbally about potential effects of the pharmaceutical preparation on breastfeeding, i.e. the risk of an altered milk flavour and rejection of the milk by the nursling. Accordingly, if this would happen, the mothers were recommended to feed their babies with stored human milk or formula milk products.
The milk donors were between the ages of 29 and 40 years (mean 34 years). During their participation in the study, their breast milk production had to be normal and in excess of their infants' needs, with no breast infections and no overall medical complaints present. Five participants were primiparous, three were multiparous and the breast milk samples were from 19 weeks to 19 months postpartum. For sampling, either electrical or mechanical breast pumps or manual expression techniques were applied, resulting in sample volumes between 10 and 100 mL. The samples were immediately subjected to sample preparation after a maximum storage time of five hours at 7 °C or were stored in a freezer at −20 °C for up to five days.
The participating volunteers were asked to ingest one Soledum® capsule, containing 100 mg 1,8-cineole, and to wait until they themselves or another person began to notice the eucalyptus-like odour on their breath. […] The donors were instructed to keep notes on the dates of capsule intake, first eucalyptus-like odour on their breath and exact sampling time. Unfortunately it was difficult for some mothers to detect the smell on their breath so they expressed the samples after some time without having noticed the smell, or reported having been unsure about the smell. […] Some of the donors repeated the whole experiment and some expressed more than one sample after the capsule intake, resulting in 14 samples in total, from 8 different mothers.
Extracts containing the volatile fraction of the human milk samples were prepared by Solvent Assisted Flavour Evaporation (SAFE) after addition of deuterated 1,8-cineole as internal standard (solution in dichloromethane), followed by 10 min of stirring, then another addition of dichloromethane (50% v/v), and 30 min of stirring. The resulting stable phase was distilled in the SAFE-apparatus at 50 °C and approximately 1x10^−4 mbar. The volatile fraction of the samples was frozen with liquid nitrogen. After thawing, it consisted of two phases, formed by the dichloromethane and by the water out of the milk. The water phase was extracted three times with dichloromethane, and the solvent phases were combined and dried over anhydrous Na2SO4. Finally the sample extracts were concentrated by microdistillation according to Bemelmans at 50 °C to a total volume of 50 to 200 μL.
For GC-MS analyses, an Agilent MSD quadrupole system (GC 7890A with MSD 5975C, Agilent Technologies, Waldbronn, Germany) coupled with a CIS 4C (cooled injection system) and an MPS 2 auto-sampler (Gerstel GmbH & Co. KG, Duisburg, Germany) were used. […]

[3] = Determination of the ratios of enantiomers of chiral metabolites in human milk on chiral GC capillaries; format: in vivo
Source text: The separation of the chiral metabolites of 1,8-cineole was successfully achieved using different β- or γ-cyclodextrin-based stationary phases (Rt-bDEXsa, Rt-bDEXse, Rt-bDEXsm and Rt-yDEXsa) for gas chromatographic analysis. Table S1, in the supplementary material, lists the usable separation phases and the respective retention indices (determined according to van den Dool and Kratz) for each pair of enantiomers. It was therefore decided to use the following capillaries for the analysis of the human milk samples: Rt-bDEXsm for separation of 2,3-dehydro-, α2,3-epoxy-, 2-oxo-, 3-oxo- and 9-hydroxy-1,8-cineole, and Rt-yDEXsa for separation of α2-hydroxy-, α3-hydroxy- and β2-hydroxy-1,8-cineole, under the GC conditions described in the experimental section.
For GC-MS analyses, an Agilent MSD quadrupole system (GC 7890A with MSD 5975C, Agilent Technologies, Waldbronn, Germany) coupled with a CIS 4C (cooled injection system) and an MPS 2 auto-sampler (Gerstel GmbH & Co. KG, Duisburg, Germany) were used. Data collection and analysis were performed with the MSD ChemStation E.02.00.493 (Agilent Technologies, Inc.) software. Quantification experiments were carried out on DB-FFAP and DB-5 capillaries (30 m length, 0.25 mm inner diameter, 0.25 µm film thickness, Agilent J&W GC Columns, USA), and for monitoring of the ratio of enantiomers the chiral capillaries Rt-bDEXsa, Rt-bDEXse, Rt-bDEXsm and Rt-yDEXsa (30 m length, 0.32 mm inner diameter, 0.25 µm film thickness, Restek GmbH, Bad Homburg, Germany) were utilised. Pre-columns of uncoated, deactivated fused silica (0.53 mm inner diameter, 0.5 to 3.5 m length) were used to ensure that no potentially present low-volatile residues could contaminate the analytical capillaries. The temperature programme of the column oven was as follows: 40 °C for 2 min, 4 °C/min up to 170 °C, 40 °C/min up to 230 °C (Rt-DEX capillaries), 240 °C (DB-FFAP) and 250 °C (DB-5), respectively, and hold time at end temperature of 5 to 10 min. As carrier gas, helium was used at a flow rate of 1.3 mL/min (velocity 41.1 cm/s). Injection of 1 or 2 µL was performed by the auto-sampler.
For the separation of the pairs of enantiomers of the chiral metabolites of 1,8-cineole, four different capillaries (Rt-bDEXsa, Rt-bDEXse, Rt-bDEXsm, and Rt-yDEXsa) were evaluated for optimisation of the peak-to-peak resolution of the enantiomers by injecting a mixture of all the metabolites in a dichloromethane solution and by varying the heating rate. Besides the separation of each pair of enantiomers from each other, it was also important to confirm that no other metabolite coeluted with any one of the enantiomers, because the milk samples would most probably contain all metabolites. Moreover, the separation conditions for the mixture of reference substances were also tested on some human milk sample extracts and modified accordingly, where necessary, to avoid coelution with interfering matrix compounds.
For calculation of the ratio of enantiomers (that is, the relative abundance of each enantiomer to the not separated mixture of enantiomers), the peak area of each enantiomer was divided by the sum of the peak areas of both enantiomers and multiplied by 100. With the known concentrations of the chiral metabolites in each milk sample, the absolute concentration of each single enantiomer was also calculated by multiplying the concentration with the respective percentage.

[4] = sample A-1b (odour yes), oral 100 mg 1,8-cineole, values given with (<x) are approximations
[5] = sample B-1 (odour yes), oral 100 mg 1,8-cineole, values given with (<x) are approximations
[6] = sample B-2b (odour yes), oral 100 mg 1,8-cineole, values given with (<x) are approximations
[7] = sample B-2c (no odour), oral 100 mg 1,8-cineole
[8] = sample C (no odour; very weak odour not caused by 1,8-cineole), oral 100 mg 1,8-cineole, values given with (<x) are approximations
[9] = sample D-1 (no odour), oral 100 mg 1,8-cineole, values given with (<x) are approximations
[10] = sample D-2 (odour yes), oral 100 mg 1,8-cineole, values given with (<x) are approximations
[11] = sample E-2 (odour yes), oral 100 mg 1,8-cineole, values given with (<x) are approximations
[12] = sample G (odour yes), oral 100 mg 1,8-cineole, values given with (<x) are approximations
[13] = sample H (odour yes), oral 100 mg 1,8-cineole, values given with (<x) are approximations
[14] = sample F (no odour), parent ingested two capsules, values given with (<x) are approximations

SMILES	Absolute concentration in human milk [2, 4] [µg/kg]	Absolute concentration in human milk [2, 5] [µg/kg]	Estimated maximum level in human milk (concentration calculated with the last calibration point, in parentheses) ([2]; sample B-2b (odour yes)) [µg/kg]	Absolute concentration in human milk [2, 6] [µg/kg]	Absolute concentration in human milk [2, 7] [µg/kg]	Estimated maximum level in human milk (concentration calculated with the last calibration point, in parentheses) ([2]; sample C (no odour)) [µg/kg]	Absolute concentration in human milk [2, 8] [µg/kg]	Estimated maximum level in human milk (concentration calculated with the last calibration point, in parentheses) ([2]; sample D-1 (no odour)) [µg/kg]	Absolute concentration in human milk [2, 9] [µg/kg]	Estimated maximum level in human milk (concentration calculated with the last calibration point, in parentheses) ([2]; sample D-2 (odour yes)) [µg/kg]	Absolute concentration in human milk [2, 10] [µg/kg]	Absolute concentration in human milk [2, 11] [µg/kg]	Estimated maximum level in human milk (concentration calculated with the last calibration point, in parentheses) ([2]; sample G (odour yes)) [µg/kg]	Absolute concentration in human milk [2, 12] [µg/kg]	Absolute concentration in human milk [2, 13] [µg/kg]	Absolute concentration in human milk [2, 14] [µg/kg]	also measured
CC12CCC(C(O)C1)C(C)(C)O2 (stereo not drawn) [a3-hydroxy-1,8-cineole, α3-Hydroxy-1,8-cineole]	0.77	1.06	< 2.07	0.54	0.05	< 0.96	0.05	< 1.06	0.03	< 1.92	0.41	0.96	< 3.51	0.72	1.53		Concentration in plasma [1]: below the limit of quantitation; Estimated maximum level in human milk (concentration calculated with the last calibration point, in parentheses) ([2]; sample A-1b (odour yes)): < 1.14 µg/kg; Estimated maximum level in human milk (concentration calculated with the last calibration point, in parentheses) ([2]; sample B-1 (odour yes)): < 1.65 µg/kg; Estimated maximum level in human milk (concentration calculated with the last calibration point, in parentheses) ([2]; sample E-2 (odour yes)): < 1.78 µg/kg; Estimated maximum level in human milk (concentration calculated with the last calibration point, in parentheses) ([2]; sample H (odour yes)): < 1.96 µg/kg
CC12CCC(C(=O)C1)C(C)(C)O2 (centres unmarked) [3-oxo-1,8-cineole]	1.80	3.32	< 2.37	1.47	0.68	< 1.10	0.14	< 1.22	0.77	< 2.20	2.12	2.41	< 4.02	3.38	3.85	0.07	Estimated maximum level in human milk (concentration calculated with the last calibration point, in parentheses) ([2]; sample A-1a (no odour)): < 1.57 µg/kg; Absolute concentration in human milk ([2]; sample A-1a (no odour), oral 100 mg 1,8-cineole, values given with (<x) lie beyond calibration range, approximation): 0.01 µg/kg; Estimated maximum level in human milk (concentration calculated with the last calibration point, in parentheses) ([2]; sample F (no odour), two capsules): < 3.00 µg/kg; Enantiomeric ratio in human milk [3]: nearly enantiomerically pure; Percentage E1, range as described for boxplot ([3]; human milk samples, Figure 5): under 10%
CC12CCC(O)(CC1)C(C)(C)O2 [4-hydroxy-1,8-cineole]	5.96	6.35		5.62	2.32				2.24		7.13	8.92		3.39	5.66	3.62	
CC1(C)OC2(C)CCC1CC2O (stereo not drawn) [b2-hydroxy-1,8-cineole, β2-hydroxy-1,8-cineole]	6.00	6.72		5.82	1.71	< 0.96	0.33		1.42		7.35	11.44		3.80	7.90		
